Test results from patent publication US9624229B2, “Pyrimidine-2-amine compounds and their use as inhibitors of JAK kinases” (Rigel Pharmaceuticals, Inc., priority 2008, dated 2017).
Read-outs that look alike come from different tables or passages of the source.

Biological target: Ba/F3 V617F cells (Homo sapiens, UniProt O60674, V617F, cells depend on it)
Experiment: Proliferation assay (Cell Titer-Glo, 72 h) utilizing Ba/F3 V617F cells
Type: cell-based, mouse
Summary of the method: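 Ba/F3 V617F cells in RPMI/10% FBS, 1×10^5 cells/mL, exposed in duplicate to 3-fold serial compound dilutions (top 5 mM DMSO stock, diluted 1:250, added as 2× solution in 5% FBS medium) for 72 h at 37 °C. Viability by Cell Titer-Glo luminescence; IC50 reported.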

[1] = Ba/F3 V617F cells, proliferation, level of activity to inhibit JAK2, read-out: IC50 (the source's name)
[2] = Ba/F3 V617F cells, proliferation, level of activity given as class symbol, read-out: IC50 (the source's name)
[3] = inhibition of JAK2 activity, proliferation of Ba/F3 V617F cells, read-out: IC50 (the source's name)

Chain of Ba/F3 V617F cells (O60674 whole entry V617F): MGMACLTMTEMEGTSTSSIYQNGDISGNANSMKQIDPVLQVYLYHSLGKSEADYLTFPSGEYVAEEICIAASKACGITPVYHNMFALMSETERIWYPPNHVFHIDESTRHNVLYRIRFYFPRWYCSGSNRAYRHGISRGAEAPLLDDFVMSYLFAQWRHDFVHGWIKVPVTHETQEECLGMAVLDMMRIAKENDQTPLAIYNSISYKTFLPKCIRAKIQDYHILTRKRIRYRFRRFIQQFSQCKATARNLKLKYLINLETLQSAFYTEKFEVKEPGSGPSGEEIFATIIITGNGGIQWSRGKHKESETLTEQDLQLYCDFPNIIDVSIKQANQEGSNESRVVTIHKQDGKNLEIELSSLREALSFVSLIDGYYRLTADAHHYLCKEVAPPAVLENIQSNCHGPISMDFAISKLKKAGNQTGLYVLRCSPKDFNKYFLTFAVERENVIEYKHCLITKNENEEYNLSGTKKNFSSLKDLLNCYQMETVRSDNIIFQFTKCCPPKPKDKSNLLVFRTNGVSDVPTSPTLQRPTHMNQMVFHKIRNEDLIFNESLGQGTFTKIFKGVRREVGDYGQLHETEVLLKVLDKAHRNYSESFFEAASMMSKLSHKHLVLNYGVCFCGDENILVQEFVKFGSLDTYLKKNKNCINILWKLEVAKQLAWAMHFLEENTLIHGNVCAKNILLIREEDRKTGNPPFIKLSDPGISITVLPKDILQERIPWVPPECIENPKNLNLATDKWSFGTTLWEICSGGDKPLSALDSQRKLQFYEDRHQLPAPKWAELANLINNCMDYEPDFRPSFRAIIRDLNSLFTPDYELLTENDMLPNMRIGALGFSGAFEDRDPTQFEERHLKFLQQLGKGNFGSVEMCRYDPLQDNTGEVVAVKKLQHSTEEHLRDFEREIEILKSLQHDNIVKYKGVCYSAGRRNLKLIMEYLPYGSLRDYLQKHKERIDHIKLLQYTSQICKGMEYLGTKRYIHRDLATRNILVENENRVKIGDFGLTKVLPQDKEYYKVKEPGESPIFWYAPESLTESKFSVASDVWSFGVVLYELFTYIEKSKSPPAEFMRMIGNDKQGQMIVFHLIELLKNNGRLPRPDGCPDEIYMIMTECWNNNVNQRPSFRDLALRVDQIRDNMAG

Row | Compound | GI50 [1] | further results
1 | Cc1cc(Nc2nccc(-c3cnc4c(c3)OCC(=O)N4)n2)ccc1N1C[C@@H]2C[C@H]1CO2 [compound 210, 4-(3-oxo-3,4-dihydro-2H-pyrido[3,2-b][1,4]oxazin-7-yl)-N-(3-methyl-4-((1S,4S)-5-oxa-2-azabicyclo[2.2.1]heptan-2-yl)phenyl)pyrimidin-2-amine] |  | GI50 [2]: < 1000 nM
2 | Cc1cc(Nc2nccc(-c3cnc(NC(=O)C4CC4)nc3)n2)ccc1N1C[C@@H]2C[C@H]1CN2C [compound 44, 4-(2-((cyclopropyl)carbonylamino)-pyrimidin-5-yl)-N-(3-methyl-4-((1S,4S)-5-methyl-2,5-diazabicyclo[2.2.1]heptan-2-yl)phenyl)pyrimidin-2-amine] | < 1000 nM | 
3 | Cc1cnc(Nc2ccc(N3C[C@@H]4C[C@H]3CN4C)c(F)c2)nc1-c1ccc(N2CCOCC2)nc1 [compound 68, 5-methyl-4-(6-(morpholin-4-yl)pyridin-3-yl)-N-(3-fluoro-4-((1S,4S)-5-methyl-2,5-diazabicyclo[2.2.1]heptan-2-yl)phenyl)pyrimidin-2-amine] | < 1000 nM | 
4 | CC(=O)Nc1ccc(-c2ccnc(Nc3ccc(N4C[C@@H]5C[C@H]4CN5C)c(C)c3)n2)cn1 [compound 132, 4-(6-(acetamido)pyridin-3-yl)-N-(3-methyl-4-((1S,4S)-5-methyl-2,5-diazabicyclo[2.2.1]heptan-2-yl)phenyl)pyrimidin-2-amine] | < 1000 nM | 
5 | CN1C2CCC1CN(c1ccc(Nc3nccc(-c4ccc(N)nc4)n3)cc1)C2 [compound 158, 4-(6-aminopyridin-3-yl)-N-(4-(8-methyl-3,8-diazabicyclo[3.2.1]octan-3-yl)phenyl)pyrimidin-2-amine] | < 1000 nM | 
6 | CN1C[C@@H]2C[C@H]1CN2c1ccc(Nc2nccc(-c3cnc4c(c3)OC(C)(C)C(=O)N4)n2)cc1C#N [compound 53, 4-(2,2-dimethyl-3-oxo-3,4-dihydro-2H-pyrido[3,2-b][1,4]oxazin-7-yl)-N-(3-cyano-4-((1S,4S)-5-methyl-2,5-diazabicyclo[2.2.1]heptan-2-yl)phenyl)pyrimidin-2-amine] | < 1000 nM | 
7 | CN1C[C@@H]2C[C@H]1CN2c1ccc(Nc2nccc(-c3ccc(NC(=O)C(C)(C)C)cc3)n2)cc1F [compound 128, 4-(4-(t-butylcarbonylamino)phenyl)-N-(3-fluoro-4-((1S,4S)-5-methyl-2,5-diazabicyclo[2.2.1]heptan-2-yl)phenyl)pyrimidin-2-amine] | < 1000 nM | 
8 | Cc1cc(Nc2nccc(-c3ccc(N4C[C@@H]5C[C@H]4CO5)nc3)n2)cnc1N1C[C@@H]2C[C@H]1CN2C [compound 266, 4-(6-((1S,4S)-2-oxa-5-azabicyclo[2.2.1]heptan-5-yl)pyridin-3-yl)-N-(5-methyl-6-((1S,4S)-5-methyl-2,5-diazabicyclo[2.2.1]heptan-2-yl)pyridin-3-yl)pyrimidin-2-amine] |  | GI50 [3]: < 1000 nM
9 | Cc1cc(Nc2nccc(-c3ccc(N4CCOCC4)nc3)n2)ccc1N1C2CCC1CC2 [compound 110, 4-(6-(morpholin-4-yl)pyridin-3-yl)-N-(3-methyl-4-(7-azabicyclo[2.2.1]heptan-7-yl)phenyl)pyrimidin-2-amine] | 1000 to 10000 nM | 
10 | CN1C[C@@H]2C[C@H]1CN2c1ccc(Nc2nccc(-c3ccc(N4CCOCC4)cc3)n2)cc1F [compound 47, 4-(4-(morpholin-4-yl)phenyl)-N-(3-fluoro-4-((1S,4S)-5-methyl-2,5-diazabicyclo[2.2.1]heptan-2-yl)phenyl)pyrimidin-2-amine] | 1000 to 10000 nM | 
11 | CN1C[C@@H]2C[C@H]1CN2c1ccc(Nc2nccc(-c3ccc(NCCN4CCOCC4)nc3)n2)cc1F [compound 70, 4-(6-(2-(morpholin-4-yl)ethyl)aminopyridin-3-yl)-N-(3-fluoro-4-((1S,4S)-5-methyl-2,5-diazabicyclo[2.2.1]heptan-2-yl)phenyl)pyrimidin-2-amine] | < 1000 nM | 
12 | CN1C[C@@H]2C[C@H]1CN2c1ccc(Nc2nccc(-c3cnc(N4CCOCC4)cn3)n2)cn1 [compound 180, 4-(5-(morpholin-4-yl)pyrazin-2-yl)-N-(6-((1S,4S)-5-methyl-2,5-diazabicyclo[2.2.1]heptan-2-yl)pyridin-3-yl)pyrimidin-2-amine] |  | GI50 [3]: 1000 to 10000 nM
13 | Cc1cc(Nc2nccc(-c3ccc4c(c3)SCC(=O)N4)n2)ccc1N1C[C@@H]2C[C@H]1CN2C [compound 274, 4-(3-oxo-3,4-dihydro-2H-benzo[b][1,4]thiazin-7-yl)-N-(3-methyl-4-((1S,4S)-5-methyl-2,5-diazabicyclo[2.2.1]heptan-2-yl)phenyl)pyrimidin-2-amine] |  | GI50 [2]: < 1000 nM
14 | CC1(C)Oc2cc(-c3ccnc(Nc4ccc(N5C[C@@H]6C[C@H]5CN6S(C)(=O)=O)c(Cl)c4)n3)cnc2NC1=O [compound 249, 4-(2,2-dimethyl-3-oxo-3,4-dihydro-2H-pyrido[3,2-b][1,4]oxazin-7-yl)-N-(3-chloro-4-((1S,4S)-5-(methylsulfonyl)-2,5-diazabicyclo[2.2.1]heptan-2-yl)phenyl)pyrimidin-2-amine] |  | GI50 [2]: < 1000 nM
15 | CN(C)c1ccc(-c2ccnc(Nc3ccc(N4C[C@@H]5C[C@H]4CN5C)nc3)n2)cc1 [compound 56, 4-(4-(dimethylamino)phenyl)-N-(6-((1S,4S)-5-methyl-2,5-diazabicyclo[2.2.1]heptan-2-yl)pyridin-3-yl)pyrimidin-2-amine] |  | GI50 [3]: 1000 to 10000 nM
16 | CN(C)c1ccc(-c2nc(Nc3ccc(N4C[C@@H]5C[C@H]4CN5C)c(F)c3)ncc2F)cn1 [compound 5, 4-(6-(N,N-dimethylamino)pyridin-3-yl)-5-fluoro-N-(3-fluoro-4-((1S,4S)-5-methyl-2,5-diazabicyclo[2.2.1]heptan-2-yl)phenyl)pyrimidin-2-amine] | 1000 to 10000 nM | 
17 | Cc1cc(Nc2nccc(-c3ccc(N4C[C@@H](C)O[C@@H](C)C4)nc3)n2)ccc1N1C[C@@H]2C[C@H]1CO2 (relative stereo) [compound 201] |  | GI50 [2]: < 1000 nM
18 | Cc1cc(Nc2nccc(-c3ccc(N4CCOCC4)nc3)n2)ccc1N1C[C@@H]2C[C@H]1CN2CC1CC1 [compound 37, 4-(6-(morpholin-4-yl)pyridin-3-yl)-N-(3-methyl-4-((1S,4S)-5-(cyclopropyl)methyl-2,5-diazabicyclo[2.2.1]heptan-2-yl)phenyl)pyrimidin-2-amine] | < 1000 nM | 
19 | Cc1cc(Nc2nccc(-c3ccc(N4CCOC(CN(C)C)C4)nc3)n2)ccc1N1C[C@@H]2C[C@H]1CN2C (stereo partly drawn) [compound 189, 4-(6-(2-(dimethylamino)methylmorpholin-4-yl)pyridin-3-yl)-N-(3-methyl-4-((1S,4S)-5-methyl-2,5-diazabicyclo[2.2.1]heptan-2-yl)phenyl)pyrimidin-2-amine] |  | GI50 [2]: < 1000 nM
20 | Cc1cc(Nc2nccc(-c3ccc(NC(=O)NC4CC4)cc3)n2)cnc1N1C[C@@H]2C[C@H]1CN2C [compound 140, 4-(4-(3-cyclopropylureido)phenyl)-N-(5-methyl-6-((1S,4S)-5-methyl-2,5-diazabicyclo[2.2.1]heptan-2-yl)pyridin-3-yl)pyrimidin-2-amine] |  | GI50 [3]: 1000 to 10000 nM

Further lines, with some results ahead:

Row | GI50 [1] | Compound | further results
21 | 1000 to 10000 nM | CCOc1ccc(-c2ccnc(Nc3ccc(N4C[C@@H]5C[C@H]4CN5C)c(F)c3)n2)cn1 [compound 174, 4-(6-ethoxypyridin-3-yl)-N-(3-fluoro-4-((1S,4S)-5-methyl-2,5-diazabicyclo[2.2.1]heptan-2-yl)phenyl)pyrimidin-2-amine] | 
22 | < 1000 nM | CC(=O)Nc1ccc(-c2ccnc(Nc3ccc(N4CC5CCC(C4)N5C)cc3)n2)cc1 [compound 162, 4-(4-(acetamido)phenyl)-N-(4-(8-methyl-3,8-diazabicyclo[3.2.1]octan-3-yl)phenyl)pyrimidin-2-amine] | 
